Results on 1 molecule are retold here after PMC11403612, “Preparation and Preclinical Characterization of a Simple Ester for Dual Exogenous Supply of Lactate and Beta-hydroxybutyrate” (Journal of Agricultural and Food Chemistry, 2024).

A short description of data set [1]: Stability of LaKe in plasma, rat. The data set is classed as in vitro ADME. On the procedure:
The in vitro stability of LaKe was evaluated following incubation in simulated gastric fluid (SGF), simulated intestinal fluid (SIF), fresh and frozen plasma (rats and humans, respectively), and the presence of hepatocytes (rats and humans) and liver microsomes (rats and humans). At the chosen time points, the mixtures were analyzed by LC-MS/MS to quantify the remaining LaKe and all assays included at least one control compound with known pharmacokinetic properties. […]
centrifuged at 4000 rpm, 4℃ for 20 min. 60 μL of supernatant was mixed with 180 μL of purified water for subsequent LC/MS/MS analysis.
LC-MS/MS Condition: ACQUITY UPLC BEH C18 1.7um 2.1 * 50mm Column (Part No.186002350). Mobile phase: A: 0.1% Formic Acid in Water; B: 0.1% Formic Acid in ACN. […]
Samples were incubated at 37 ℃, 600 rpm for the appointed time. At the chosen time points (60, 120, 360, 1440 minutes) samples were immediately mixed with 400 μL of cold acetonitrile containing 200 ng/mL tolbutamide and labetalol (internal standards). 200 μL of suspension was removed and mixed completely with 400 μL of cold acetonitrile containing 200 ng/mL tolbutamide and labetalol again. The T0 samples were prepared by transferring 198 μL of SIF solution to corresponding well after adding 400 μL of cold acetonitrile containing 200 ng/mL tolbutamide and then mixing completely. The samples were […]
Stability of LaKe in plasma […]

The nature of data set [2]: Hepatocyte stability of LaKe, rat. It counts as in vitro ADME. Particulars: cryopreserved hepatocytes.
The subject of data set [3] is plasma free fatty acids (FFA). Kind of data set: Plasma free fatty acids after oral LaKe in rats. It counts as in vivo, Sprague–Dawley rats. The settings on record: 4.5 g/kg oral. The protocol: Male Sprague–Dawley rats (300–350g, Taconic, Ry, Denmark) were kept for acclimatization at a constant temperature of 23 °C with a 12 h light-dark cycle and with unlimited access to food and water. All animal handling was in accordance with national guidelines in Denmark and the guidelines from the Directive 2010/63/EU of the European Parliament on the protection of animals used for scientific purposes, and all experiments conformed to Danish Law (Act. No. 1306 of 23/11/2007). The experimental protocol was approved by the Danish Animal Expectorate (2018-15-0201-01475).
The rats were randomly selected to receive either LaKe (n = 8) or placebo (n = 8). […]
Concentrations of non-esterified free fatty acids (FFA) were measured using a NEFA-HR(2) kit (Wako, Chemicals Gmbh, Germany). Absorbance was measured by spectrometry (PHERAstar FS, BMG LABTECH, […]
Quantification of N-L-lactoyl phenylalanine (Lac-Phe) by LC-MS/MS […]
Pure calibrant samples were prepared from an authentic standard compound (N-L-lactoyl phenylalanine), using the plasma sample preparation method at concentrations equivalent to […] in the original sample. The lower limit of quantification for N-L-lactoyl phenylalanine (Lac-Phe) quantification was estimated to 10 nM. […]

In the case of `CC(O)CCOC(=O)C(C)O` (centres unmarked) [LaKe, 3-hydroxybutyl 2-hydroxypropanoate], in data set [1] (fresh plasma from rats, 10 min), the “detection of LaKe at the first time point” value is on record as “could not be detected”. Besides, the half-life (usually the time in which the quantity being followed falls by half) at 2 µM in data set [1] (rat plasma (fresh)) is under 30 min. Also, the half-life at 0.1 mg/mL in data set [2] is under 30 min. The “maximum suppression of FFA levels” value in data set [3] (75 min time point, compared to vehicle) is over 40%. Moreover, the “change in plasma free fatty acids compared to vehicle control” value in data set [3] (from 15 min until 105 min) is listed as “decrease”.
